The results in this text go back to paper PMC4730251, “Cloning, Characterization and Expression Pattern Analysis of a Cytosolic Copper/Zinc Superoxide Dismutase (SaCSD1) in a Highly Salt Tolerant Mangrove (Sonneratia alba)” (International Journal of Molecular Sciences, 2015).

This test addresses T1, SaCSD1 (Sonneratia alba, UniProt A0A0U1X631).
T1 construct: gene SOD1
T1 sequence (A0A0U1X631 1-152): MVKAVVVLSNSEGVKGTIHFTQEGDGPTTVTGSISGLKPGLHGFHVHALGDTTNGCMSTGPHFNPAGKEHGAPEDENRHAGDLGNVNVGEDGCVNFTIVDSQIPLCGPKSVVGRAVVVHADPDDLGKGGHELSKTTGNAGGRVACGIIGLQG
In words: SOD activity assay kit (WST-1 method). Type of test: biochemical. On the technique in general: Tetrazolium assays rely on reduction of a dye to a coloured formazan, in cell work by metabolically active cells.

SMILES strings stand for the structures.

In the case of `[O]O` [superoxide], the “SOD activity assay kit (WST-1 method)” value is listed as “Superoxide dismutase activity assay kit (WST-1 method) was used to detect the SOD activity”.
